The text below walks through data of patent US6440391B1, “Management of snoring by oral administration of dimethyl sulfone” (Elstan Corporation, priority 2000, dated 2002).

The subject of data set [1] is snoring. To be noted: cited from earlier work.
Data set [2] relates to snoring. As to the kind of experiment: Oral spray of methylsulfonylmethane solution onto the oropharynx before sleep; snoring observed by subject's mate. It counts as in vivo, human. Set-up: key to Results (relief of snoring): FR = Full Relief; MR = Moderate Relief; NR = No Relief. To be noted: for Results (relief of snoring): one line per subject. As for the experimental part: The initial experiments to determine effectiveness of the instillation of methylsulfonylmethane as a snoring reduction agent was carried out with an initial sampling of 10 individuals.
In each of the above cases, the subject was instructed to spray the solution containing the methylsulfonylmethane four (4) times into the oropharynx approximately fifteen (15) minutes to thirty (30) minutes prior to retiring for sleep. Each spray contained about 0.2 ml; to 0.25 ml of the solution. Thus, the total amount instilled is about 0.8 ml to […]. The observation of the presence or absence of snoring was made by the subject's mate. The observing party was not told that the subject was employing […] methylsulfonylmethane. As noted in Table I, 70% of the subject's mates reported the lessening or absence of snoring while 30% reported no benefit from the oral administration of the methylsulfonylmethane.
The seven patients who reported full relief or moderate relief where thereafter provided with a saline spray as a placebo without their knowledge. In each case the snoring returned. They were again given the methylsulfonylmethane spray and 70% again achieve full relief.
A second sampling of subjects was undertaken wherein the weight percentage of methylsulfonylmethane in water was varied at 1%, 5% and 10%.
By warming the solution of water and methylsulfonylmethane to no more than about 37° C. (98.6° F.), a greater concentration of methylsulfonylmethane will go into solution.

The mark [3] stands for this setting: 15% MSM, oral spray, 10 individuals (Table I).

The structures appear in SMILES notation. Values joined by “and” are separate entries in the source; they are usually repeats but may differ in a detail not shown here. Equal values may be shown once.

As for `CS(C)(=O)=O` [MSM, methylsulfonylmethane], the “effectiveness of intranasal treatment” value in the data set with snoring [1] (1% to 20% by weight, drops into the nasal cavity) is “highly effective”. Also, the “time interval of reduced snoring” value in the data set on snoring [1] (nasal administration saturating mucous membranes of the nasal passageways) is 8 to 12 h. In the data set with snoring [1] (nasal route, some individuals), the “local tolerability on nasal instillation” value is “slight burning sensation”. For the same compound, the “Results (relief of snoring)” value in the data set with snoring [2] (1% MSM by weight in water, oral) was “FR and NR (3×)”; with snoring [2] (5% MSM by weight in water, oral), “NR (2×) and FR (2×)”; in the data set with snoring [2] (10% MSM by weight in water, oral), “FR (3×) and NR”; with snoring [2] (15% MSM by weight, oral spray 4 times (0.8-1.2 ml) 15-30 min before sleep) it was “FR (6×) and NR (3×) and MR”; in the data set with snoring [2] (20% MSM by weight in water, solution warmed to no more than about 37° C., oral), “FR”. For the same compound, the “relief of snoring at lowest concentration” value in the data set with snoring [2] (1% by weight in water, oral, Table II) is recorded as “the relief was not reported to be as dramatic as at higher concentrations”. In addition, the “effectiveness of concentration range against snoring” value in the data set on snoring [2] (1%-20% by weight in water, oral, Tables I-III) is given as “effective”. Moreover, the “subject's mates reporting lessening or absence of snoring” value in the data set on snoring [2] (setting [3]) worked out at 70%. For the same compound, the “subject's mates reporting no benefit” value in the data set on snoring [2] (setting [3]) is 30%. The “patients again achieving full relief when given the spray again” value in the data set with snoring [2] (the seven responders, re-given MSM spray after saline placebo (snoring returned on placebo)) turned out to be 70%.
